Like-named read-outs stand apart in the source and are kept apart here.
How the values were obtained:
[1] = test system: Ba/F3_EGFR WT cells; assay: Biological Activity Assay D: BaF3 cell proliferation assay, EGFR wild-type (BaF3 WT); type: cell-based; settings: Ba/F3 EGFR, read-out: BaF3 WT IC50
[2] = test system: BaF3_EGFR d19/CS cells; assay: Biological Activity Assay D: BaF3 cell proliferation assay, EGFR exon 19 deletion/C797S (BaF3 d19/CS); type: cell-based; settings: Ba/F3 EGFR, read-out: BaF3 d19/CS IC50
[3] = target: recombinant human EGFR exon 19 deletion/C797S double mutant protein (Homo sapiens (Human), UniProt P00533, C797S/DEL746-750); assay: Biological Activity Assay C: biochemical assay against EGFR exon 19 deletion/C797S protein (EGFR d19/CS)
Method in brief: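 IC50 values were fitted with a 4-parameter model to reaction slopes taken from 90 kinetic reads spaced 120 s apart. The Phosphosens sensor/ATP working solution was 40 uM/4 mM, and compound was dosed as 16-point dilutions at 2.5% final DMSO.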

[4] = test system: BaF3_EGFR LR/CS cells; assay: Biological Activity Assay D: BaF3 cell proliferation assay, EGFR L858R/C797S mutant (BaF3 LR/CS); type: cell-based; settings: Ba/F3 EGFR, read-out: BaF3 LR/CS IC50
[5] = Ba/F3_EGFR WT cells, ~72 hours, CellTiter-Glo
[6] = BaF3_EGFR d19/CS cells, ~72 hours, CellTiter-Glo
[7] = BaF3_EGFR LR/CS cells, ~72 hours, CellTiter-Glo

Sequence of recombinant human EGFR exon 19 deletion/C797S double mutant protein (P00533 other isoform, or with tags, fused parts or gaps C797S/del 1-668/del 746-750 limits assumed): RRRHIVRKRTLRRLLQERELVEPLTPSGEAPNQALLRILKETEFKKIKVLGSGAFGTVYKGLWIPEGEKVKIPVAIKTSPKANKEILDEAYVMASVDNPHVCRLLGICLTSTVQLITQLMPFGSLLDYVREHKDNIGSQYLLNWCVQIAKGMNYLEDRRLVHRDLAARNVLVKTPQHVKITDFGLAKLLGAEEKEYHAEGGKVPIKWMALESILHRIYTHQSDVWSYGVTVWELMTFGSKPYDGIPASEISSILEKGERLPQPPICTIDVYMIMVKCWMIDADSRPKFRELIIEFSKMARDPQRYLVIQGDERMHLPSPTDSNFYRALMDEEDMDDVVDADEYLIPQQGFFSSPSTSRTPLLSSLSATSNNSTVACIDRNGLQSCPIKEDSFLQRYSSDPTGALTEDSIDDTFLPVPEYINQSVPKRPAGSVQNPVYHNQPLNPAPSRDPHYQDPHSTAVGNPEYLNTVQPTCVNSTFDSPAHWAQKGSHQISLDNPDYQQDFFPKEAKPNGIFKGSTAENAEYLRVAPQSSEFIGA

Compound `Cn1cnc(-c2cc3c(-c4cn(CC(F)(F)CO)nc4-c4ccc(F)cc4)ncnc3o2)c1` [Example 266, 2,2-difluoro-3-{3-(4-fluorophenyl)-4-[6-(1-methyl-1H-imidazol-4-yl)furo[2,3-d]pyrimidin-4-yl]-1H-pyrazol-1-yl}propan-1-ol] has an IC50 [1, 5] of 135 nM, an IC50 [2, 6] of 2.5 nM and an IC50 [3] of 0.094 nM. The IC50 [4, 7] was 2.13 nM.
Compound `Cn1ncc(-c2cc3c(-c4cn(CC(C)(C)O)nc4-c4ccc(F)cc4)ncnc3o2)c1C(F)F` [Example 267, 1-[4-{6-[5-(difluoromethyl)-1-methyl-1H-pyrazol-4-yl]furo[2,3-d]pyrimidin-4-yl}-3-(4-fluorophenyl)-1H-pyrazol-1-yl]-2-methylpropan-2-ol] has an IC50 [1, 5] of 688 nM, an IC50 [2, 6] of 16 nM and an IC50 [3] of 0.185 nM. The IC50 [4, 7] was 22.2 nM.
`N#CCCn1cc(-c2ncnc3oc(-c4cccnc4)cc23)c(-c2ccc(F)cc2)n1` [Example 268, 3-{3-(4-fluorophenyl)-4-[6-(pyridin-3-yl)furo[2,3-d]pyrimidin-4-yl]-1H-pyrazol-1-yl}propanenitrile] was tested, and the IC50 [1, 5] was 414 nM, the IC50 [2, 6] was 13.3 nM and the IC50 [3] was 0.104 nM. The IC50 [4, 7] was 16.5 nM.
In the case of `N#CCCn1cc(-c2ncnc3oc(-c4ccccn4)cc23)c(-c2ccc(F)cc2)n1` [Example 269, 3-{3-(4-fluorophenyl)-4-[6-(pyridin-2-yl)furo[2,3-d]pyrimidin-4-yl]-1H-pyrazol-1-yl}propanenitrile], the IC50 [1, 5] is reported as 392 nM, the IC50 [2, 6] is reported as 7.72 nM and the IC50 [3] is reported as 0.082 nM. It also gave an IC50 [4, 7] of 8.63 nM.
`Cn1cnc(-c2cc3c(-c4cn([C@H]5C[C@H](C#N)C5)nc4-c4ccc(F)cc4)ncnc3o2)c1` [Example 270, (1r,3r)-3-{3-(4-fluorophenyl)-4-[6-(1-methyl-1H-imidazol-4-yl)furo[2,3-d]pyrimidin-4-yl]-1H-pyrazol-1-yl}cyclobutane-1-carbonitrile] gave an IC50 [1, 5] of 134 nM, an IC50 [2, 6] of 1.32 nM and an IC50 [3] of 0.227 nM. It also gave an IC50 [4, 7] of 1.88 nM.
`COc1ncccc1-c1cc2c(-c3cn(CC(C)(C)O)nc3-c3ccc(F)cc3)ncnc2o1` [Example 271, 1-{3-(4-fluorophenyl)-4-[6-(2-methoxypyridin-3-yl)furo[2,3-d]pyrimidin-4-yl]-1H-pyrazol-1-yl}-2-methylpropan-2-ol] showed an IC50 [1, 5] of 1600 nM, an IC50 [2, 6] of 14.1 nM and an IC50 [3] of 0.252 nM. It also gave an IC50 [4, 7] of 20.6 nM.
In the case of `Cc1c(-c2cc3c(-c4cn(CC(C)(C)O)nc4-c4ccc(F)cc4)ncnc3o2)ncn1C` [Example 272, 1-{4-[6-(1,5-dimethyl-1H-imidazol-4-yl)furo[2,3-d]pyrimidin-4-yl]-3-(4-fluorophenyl)-1H-pyrazol-1-yl}-2-methylpropan-2-ol], the IC50 ([1]; 72 h) is reported as 668 nM, the IC50 ([2]; 72 h) is reported as 15.7 nM and the IC50 [3] is reported as 0.486 nM. The IC50 ([4]; 72 h) was 13.5 nM.
Compound `Cn1ccc(-c2cc3c(-c4cn(CC(C)(C)O)nc4-c4ccc(F)cc4)ncnc3o2)n1` [Example 275, 1-{3-(4-fluorophenyl)-4-[6-(1-methyl-1H-pyrazol-3-yl)furo[2,3-d]pyrimidin-4-yl]-1H-pyrazol-1-yl}-2-methylpropan-2-ol] has an IC50 [1, 5] of 551 nM, an IC50 [2, 6] of 11.9 nM and an IC50 [3] of 0.207 nM. The IC50 [4, 7] was 13.4 nM.
`COc1ccc(-c2cc3c(-c4cn(CC(C)(C)O)nc4-c4ccc(F)cc4)ncnc3o2)nc1` [Example 276, 1-{3-(4-fluorophenyl)-4-[6-(5-methoxypyridin-2-yl)furo[2,3-d]pyrimidin-4-yl]-1H-pyrazol-1-yl}-2-methylpropan-2-ol] was tested, and the IC50 [1, 5] was 677 nM, the IC50 [2, 6] was 13.5 nM and the IC50 [3] was 0.07 nM. For the same compound, the IC50 [4, 7] was 19 nM.
In the case of `CC(C)(O)Cn1cc(-c2ncnc3oc(-c4ccc(F)cn4)cc23)c(-c2ccc(F)cc2)n1` [Example 277, 1-{3-(4-fluorophenyl)-4-[6-(5-fluoropyridin-2-yl)furo[2,3-d]pyrimidin-4-yl]-1H-pyrazol-1-yl}-2-methylpropan-2-ol], the IC50 [1, 5] is reported as 1500 nM, the IC50 [2, 6] is reported as 40 nM and the IC50 [3] is reported as 0.332 nM. For the same compound, the IC50 [4, 7] was 74.4 nM.

Source: patent US20250034159A1, “INHIBITORS OF EPIDERMAL GROWTH FACTOR RECEPTOR” (ORIC Pharmaceuticals, Inc., priority 2021, published 2025)
